Entries after “also recorded” stand apart in the source; their conditions may differ.
Assays:
p-ERK (CAL-12-T cells) = assay: p-ERK inhibition by immunoblot in CAL-12-T cells; format: cell-based
Description: (§1) Cells were plated in 6 well dishes (5 × 10^5–8 × 10^5 cells) and allowed to attach overnight. […] The plates were then placed on ice and washed 1x with chilled PBS and lysed in buffer containing 25 mM Tris-HCl [pH 7.4], 0.25% sodium deoxycholate, 150 mM NaCl, 1% Triton X-100, supplemented with protease inhibitors (1x Roche protease inhibitor cocktail) and phosphatase inhibitors (10 mM NaF, 1 mM Na3OV4, and 20 mM β-glycerophosphate). Lysates were then cleared at 21,000 g for 10 min at 4 °C. Protein concentrations of the supernatants were then quantified using a Pierce BCA Protein Assay. 12–40 µg of protein were separated using a gradient (4–20%) Criterion TGX precast gel and transferred unto a nitrocellulose membrane. The membranes were then blocked in 5% non-fat milk in TBST (Tris-buffered Saline with Tween 20) for 1 h before probing with the indicated primary antibody overnight. Membranes were imaged using Bio-Rad Image Lab software using ECL prime detection reagent (GE Healthcare, RPN2232 or ThermoScientific, 34095).
(§2) Western blot data was quantified by using the band feature in Image Lab, and values were averaged and analyzed in GraphPad Prism. DC50 and DMAX values were fitted using a three parameter [inhibitor] versus response and reported directly from the Prism output. Mean ± SD and unpaired t-tests were performed in GraphPad Prism.

[1] = system: SK-MEL-246 cells (Class 2, BRAF^G469A); assay: Cell proliferation (MTS) assay; format: cell-based; settings: 120 h, 5-day treatment, read-out: EC50, cell growth
[2] = molecular target: T1, BRAF^V600E (A375 xenograft) (Homo sapiens, UniProt P15056, V600E); assay: A375 xenograft study, BRAF degradation in tumor; format: in vivo, mice; settings: 50 mg/kg or 150 mg/kg i.p. once a day for 3 days, 8 h after final dose
T1 construct: 5 million A375 cells were subcutaneously implanted in female nu/nu mice; endogenous in cells; host or cells: A375 cells as subcutaneous xenograft tumour in female nu/nu mice
Description: 5 million A375 cells were subcutaneously implanted in female nu/nu mice. […] Mice were sacrificed 8 h after the final dose. Tissues were harvested, flash frozen, and lysed in 1X cell lysis buffer (Cell Signaling #9803) supplemented with protease and phosphatase inhibitors. Harvested tumors were disrupted using metal beads in a Tissuelyser. Homogenates were normalized for protein content and analyzed using SDS-PAGE and Western blotting. All studies were performed in compliance with institutional guidelines under an IACUC approved protocol.

[3] = molecular target: T2, V5-tagged BRAF^WT (NIH3T3 cells) (Homo sapiens, UniProt P15056); assay: V5-BRAF degradation by immunoblot in inducible NIH3T3 cells; format: cell-based
T2 construct: expressed in transfected cells; host or cells: NIH3T3 (mouse fibroblasts), doxycycline-inducible expression
Description: as §1, §2

[4] = molecular target: T3, BRAF^V600E (SK-MEL-28 cells, homozygous) (Homo sapiens, UniProt P15056, V600E); assay: BRAF degradation by immunoblot in SK-MEL-28 cells; format: cell-based
T3 construct: endogenous in cells; host or cells: SK-MEL-28
Description: as §1, §2

BRAF^WT (OVCAR-8 cells) = molecular target: T4, BRAF^WT (OVCAR-8 cells) (Homo sapiens, UniProt P15056); assay: BRAF^WT degradation by immunoblot in OVCAR-8 cells; format: cell-based
T4 construct: endogenous in cells; host or cells: OVCAR-8
Description: as §1, §2

BRAF (V600D) = molecular target: T5, BRAF (V600D) (Homo sapiens, UniProt P15056, V600D); assay: Radiolabeled kinase assay (Reaction Biology); format: biochemical
T5 construct: purchased Reaction Biology Corps
Description: (§3) Kinase assays were performed by Reaction Biology Corps by their protocol in duplicate using Km amounts of ATP calculated for each kinase.

BRAF (BRAF^WT) = molecular target: T6, BRAF (BRAF^WT) (Homo sapiens, UniProt P15056); assay: Radiolabeled kinase assay (Reaction Biology); format: biochemical
T6 construct: purchased Reaction Biology Corps
Description: as §3

BRAF (K601E) = molecular target: T7, BRAF (K601E) (Homo sapiens, UniProt P15056, K601E); assay: Radiolabeled kinase assay (Reaction Biology); format: biochemical
T7 construct: purchased Reaction Biology Corps
Description: as §3

ARAF = molecular target: T8, ARAF (Homo sapiens, UniProt P10398); assay: Radiolabeled kinase assay (Reaction Biology); format: biochemical
T8 construct: purchased Reaction Biology Corps
Description: as §3

BRAF (V600A) = molecular target: T9, BRAF (V600A) (Homo sapiens, UniProt P15056, V600A); assay: Radiolabeled kinase assay (Reaction Biology); format: biochemical
T9 construct: purchased Reaction Biology Corps
Description: as §3

[5] = molecular target: T10, BRAF^G466V (H1666 cells, heterozygous, Class 3) (Homo sapiens, UniProt P15056, G466V); assay: BRAF degradation by immunoblot in H1666 cells; format: cell-based
T10 construct: endogenous in cells; host or cells: H1666
Description: as §1, §2

[6] = system: CAL-12-T cells (Class 3, BRAF^G466V); assay: Cell proliferation (MTS) assay; format: cell-based; settings: 5 days
Description: […] 2 mg/ml MTS (Promega Corp., Madison, WI: G5421) and 25 μM phenazine methosulfate (Sigma, St. Louis, MO) were combined 19:1 and then added to cells (1 volume combined reagent: 5 volumes medium) and incubated for 1–3 h. Mitochondrial reduction of MTS to the formazan derivative was monitored by measuring the medium’s absorbance at 480 nm using a Perkin Elmer Envision Plate reader.

[7] = molecular target: T11, BRAF^WT (SK-BR-3 cells, HER2 amplification) (Homo sapiens, UniProt P15056); assay: BRAF^WT degradation by immunoblot in SK-BR-3 cells; format: cell-based
T11 construct: endogenous in cells; host or cells: SK-BR-3
Description: as §1, §2

[8] = molecular target: T12, BRAF-p61^V600E (SK-MEL-239 C4 cells) (Homo sapiens, UniProt P15056, DEL169-380/V600E); assay: BRAF degradation by immunoblot in SK-MEL-239 C4 cells; format: cell-based; settings: p61 dimer
T12 construct: endogenous in cells; host or cells: SK-MEL-239 C4; HCC-364 vr1
Description: as §1, §2

[9] = molecular target: T13, BRAF-p61^V600E (SK-MEL-239 C4 cells) (Homo sapiens, UniProt P15056+P40337, DEL169-380/V600E); assay: as above; format: cell-based; settings: p61 dimer
T13 construct: endogenous in cells; host or cells: SK-MEL-239 C4; HCC-364 vr1
Description: as §1, §2

[10] = molecular target: T14, BRAF-p61^V600E (HCC-364 vr1 cells) (Homo sapiens, UniProt P15056+P40337, DEL169-380/V600E); assay: BRAF degradation by immunoblot in HCC-364 vr1 cells; format: cell-based
T14 construct: endogenous in cells; host or cells: SK-MEL-239 C4; HCC-364 vr1
Description: as §1, §2

BRAF V600E = BRAF V600E (Homo sapiens, UniProt P15056, V600E); assay: Radiolabeled kinase assay (Reaction Biology); format: biochemical; set-up: purchased Reaction Biology Corps
Description: as §3

[11] = 1 μM cobimetinib pre-treatment 1 hour, then 1 μM SJF-0628

T11 sequence (P15056 whole entry): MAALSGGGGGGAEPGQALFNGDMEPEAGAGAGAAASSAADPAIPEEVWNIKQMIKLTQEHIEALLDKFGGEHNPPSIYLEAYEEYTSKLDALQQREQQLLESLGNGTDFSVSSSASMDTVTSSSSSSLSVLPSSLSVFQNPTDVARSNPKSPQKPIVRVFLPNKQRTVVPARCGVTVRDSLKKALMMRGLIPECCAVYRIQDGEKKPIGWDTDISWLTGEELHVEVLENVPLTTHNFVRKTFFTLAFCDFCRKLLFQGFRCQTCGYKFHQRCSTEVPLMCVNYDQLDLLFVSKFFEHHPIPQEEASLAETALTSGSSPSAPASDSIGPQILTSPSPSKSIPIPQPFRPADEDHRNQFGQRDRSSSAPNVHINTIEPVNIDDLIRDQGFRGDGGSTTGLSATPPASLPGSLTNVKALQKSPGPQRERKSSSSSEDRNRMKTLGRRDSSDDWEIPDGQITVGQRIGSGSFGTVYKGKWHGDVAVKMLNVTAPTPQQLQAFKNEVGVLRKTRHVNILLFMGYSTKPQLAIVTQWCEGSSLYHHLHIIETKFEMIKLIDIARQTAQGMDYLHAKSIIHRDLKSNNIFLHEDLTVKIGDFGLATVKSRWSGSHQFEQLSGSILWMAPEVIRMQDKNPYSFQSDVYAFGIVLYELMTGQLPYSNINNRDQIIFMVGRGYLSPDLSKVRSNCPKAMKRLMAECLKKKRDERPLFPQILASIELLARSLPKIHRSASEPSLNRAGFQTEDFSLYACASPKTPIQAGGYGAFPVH
T2 sequence (P15056 whole entry): as above
T3 sequence (P15056 whole entry V600E): as the sequence (P15056 whole entry) above, with V600E counted along it
T14 sequence (P15056 with tags, fused parts or gaps DEL169-380/V600E): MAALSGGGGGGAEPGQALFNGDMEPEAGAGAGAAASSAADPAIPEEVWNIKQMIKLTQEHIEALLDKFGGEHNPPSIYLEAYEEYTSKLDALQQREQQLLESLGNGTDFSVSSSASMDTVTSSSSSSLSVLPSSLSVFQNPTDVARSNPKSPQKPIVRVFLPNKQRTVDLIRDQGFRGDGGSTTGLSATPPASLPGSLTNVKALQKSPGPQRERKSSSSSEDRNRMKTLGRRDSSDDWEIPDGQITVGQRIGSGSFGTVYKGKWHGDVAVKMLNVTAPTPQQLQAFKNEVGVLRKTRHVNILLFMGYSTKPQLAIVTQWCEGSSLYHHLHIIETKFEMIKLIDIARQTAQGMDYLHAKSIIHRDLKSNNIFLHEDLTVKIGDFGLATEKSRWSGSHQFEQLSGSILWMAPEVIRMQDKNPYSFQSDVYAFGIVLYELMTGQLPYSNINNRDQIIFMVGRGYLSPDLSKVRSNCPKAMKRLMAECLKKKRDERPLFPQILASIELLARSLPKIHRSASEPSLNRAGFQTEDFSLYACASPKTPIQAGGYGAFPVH
T14 sequence (P40337 whole entry, stated change not applied): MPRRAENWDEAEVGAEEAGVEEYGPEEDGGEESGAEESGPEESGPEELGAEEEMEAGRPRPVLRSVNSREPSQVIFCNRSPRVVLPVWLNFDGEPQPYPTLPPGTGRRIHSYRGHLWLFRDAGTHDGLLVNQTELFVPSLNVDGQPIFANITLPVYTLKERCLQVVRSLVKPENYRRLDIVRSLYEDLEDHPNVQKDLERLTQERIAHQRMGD
T14 sequence (Q15370 whole entry partner): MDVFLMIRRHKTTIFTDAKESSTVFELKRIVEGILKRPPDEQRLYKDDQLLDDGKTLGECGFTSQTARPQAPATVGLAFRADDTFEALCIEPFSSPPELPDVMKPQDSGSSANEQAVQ
T14 sequence (Q15369 whole entry partner): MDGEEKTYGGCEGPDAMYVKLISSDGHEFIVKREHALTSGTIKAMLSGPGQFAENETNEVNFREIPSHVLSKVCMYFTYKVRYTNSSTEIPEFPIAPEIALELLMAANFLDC
T10 sequence (P15056 2-766 G466V): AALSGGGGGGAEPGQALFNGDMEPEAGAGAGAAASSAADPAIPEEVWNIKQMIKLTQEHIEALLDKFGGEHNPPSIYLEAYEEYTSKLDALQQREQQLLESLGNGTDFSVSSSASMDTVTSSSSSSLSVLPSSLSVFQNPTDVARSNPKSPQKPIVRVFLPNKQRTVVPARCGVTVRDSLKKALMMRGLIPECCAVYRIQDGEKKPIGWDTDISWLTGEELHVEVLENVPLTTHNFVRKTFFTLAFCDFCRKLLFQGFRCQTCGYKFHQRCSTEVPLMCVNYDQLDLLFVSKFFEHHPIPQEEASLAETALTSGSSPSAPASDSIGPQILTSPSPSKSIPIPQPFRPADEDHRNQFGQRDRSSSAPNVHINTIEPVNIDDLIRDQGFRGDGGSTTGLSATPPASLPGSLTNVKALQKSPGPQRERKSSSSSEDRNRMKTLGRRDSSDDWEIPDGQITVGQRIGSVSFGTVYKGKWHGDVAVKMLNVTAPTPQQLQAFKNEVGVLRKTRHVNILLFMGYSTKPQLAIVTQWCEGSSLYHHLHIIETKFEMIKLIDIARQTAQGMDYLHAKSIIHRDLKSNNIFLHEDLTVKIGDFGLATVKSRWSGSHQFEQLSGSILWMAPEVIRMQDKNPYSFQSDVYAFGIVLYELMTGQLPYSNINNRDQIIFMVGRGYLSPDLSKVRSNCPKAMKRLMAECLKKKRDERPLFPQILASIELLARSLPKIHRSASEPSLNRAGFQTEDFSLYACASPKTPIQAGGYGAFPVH
T5 sequence (P15056 whole entry V600D): as the sequence (P15056 whole entry) above, with V600D counted along it
T7 sequence (P15056 whole entry K601E): as the sequence (P15056 whole entry) above, with K601E counted along it
T13 sequence (P15056 with tags, fused parts or gaps DEL169-380/V600E): as the sequence (P15056 with tags, fused parts or gaps DEL169-380/V600E) above
T13 sequence (P40337 whole entry, stated change not applied): as the sequence (P40337 whole entry, stated change not applied) above
T13 sequence (Q15370 whole entry partner): as the sequence (Q15370 whole entry partner) above
T13 sequence (Q15369 whole entry partner): as the sequence (Q15369 whole entry partner) above
T12 sequence (P15056 with tags, fused parts or gaps DEL169-380/V600E): as the sequence (P15056 with tags, fused parts or gaps DEL169-380/V600E) above
T12 sequence (P40337 whole entry, stated change not applied, further chain): as the sequence (P40337 whole entry, stated change not applied) above
T12 sequence (Q15370 whole entry partner): as the sequence (Q15370 whole entry partner) above
T12 sequence (Q15369 whole entry partner): as the sequence (Q15369 whole entry partner) above
T4 sequence (P15056 whole entry): as the sequence (P15056 whole entry) above
T6 sequence (P15056 whole entry): as above
T9 sequence (P15056 whole entry V600A): as the sequence (P15056 whole entry) above, with V600A counted along it
BRAF V600E, sequence (P15056 whole entry V600E): as the sequence (P15056 whole entry) above, with V600E counted along it
T1 sequence (P15056 whole entry V600E): as the sequence (P15056 whole entry) above, with V600E counted along it
T8 sequence (P10398 whole entry): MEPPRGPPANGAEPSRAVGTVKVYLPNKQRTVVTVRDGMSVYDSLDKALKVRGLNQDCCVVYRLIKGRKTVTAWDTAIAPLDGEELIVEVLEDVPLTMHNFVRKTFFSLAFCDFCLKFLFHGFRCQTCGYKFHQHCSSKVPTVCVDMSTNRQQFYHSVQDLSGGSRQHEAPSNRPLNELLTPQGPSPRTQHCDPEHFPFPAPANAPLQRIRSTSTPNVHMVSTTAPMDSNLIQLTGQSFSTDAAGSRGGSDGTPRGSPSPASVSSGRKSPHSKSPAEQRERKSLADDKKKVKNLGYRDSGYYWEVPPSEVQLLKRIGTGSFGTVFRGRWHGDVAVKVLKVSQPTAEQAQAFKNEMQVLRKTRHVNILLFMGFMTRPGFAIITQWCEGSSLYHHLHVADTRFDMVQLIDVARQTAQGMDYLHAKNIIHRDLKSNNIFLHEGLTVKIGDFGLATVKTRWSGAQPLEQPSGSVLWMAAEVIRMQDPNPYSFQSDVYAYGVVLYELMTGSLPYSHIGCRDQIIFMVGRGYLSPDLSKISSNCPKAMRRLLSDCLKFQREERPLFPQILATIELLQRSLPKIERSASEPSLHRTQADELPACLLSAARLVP

EC50 [1]: 45 ± 1.11 nM
DMAX, degradation of BRAF in the xenograft [2]: > 90%
PROTAC-mediated BRAF^WT degradation ([3]; 1 µM PD0325901 pre-treatment 3 h, SJF-0628 1 μM 20 h): ~ 80%
degradation of BRAF^WT by the PROTAC ([3]; 1 µM SCH772984 pre-treatment 3 h, SJF-0628 20 h): ~ 90%
expression of WT RAF family members ([3]; doxycycline-inducible V5-BRAF, no pre-treatment): spared BRAF^WT, ARAF, and CRAF
time for which BRAF^V600E degradation and p-ERK inhibition was sustained ([4]; 100 nM): up to 72 h
recovery of BRAF levels and MAPK phosphorylation after wash-out ([4]; 100 nM 24 h treatment, wash-out, 24 h after): 30%
time to near complete / maximal BRAF^V600E degradation ([4]; 100 nM time course): ≤ 4 h
DC50 ([4]; 20-24 h treatment, read-out: DC50 (half-maximal degradation)): 6.8 nM
Dmax ([4]; 20-24 h treatment, read-out: DMAX (percent of maximal degradation)): > 95%
BRAF^WT degradation (BRAF^WT (OVCAR-8 cells)): minor BRAF^WT degradation
IC50 (BRAF (V600D)): 2.68 nM
IC50 (BRAF (BRAF^WT)): 5.8 nM
IC50 (BRAF (K601E)): 7.84 nM
IC50 (ARAF): 0.27 nM
IC50 (BRAF (V600A)): 1.06 nM
DC50 [5]: 29 nM
Dmax ([5]; NCI-H1666): > 80%
time at which complete degradation of BRAF^WT observed [7, 11]: 12 h
time to PROTAC-induced degradation of BRAF^WT [7, 11]: ≤ 4 h
degradation of BRAF^WT ([7]; PROTAC concentrations greater than 1 µM): ~ 50%
SJF-0628-dependent BRAF^WT degradation ([7]; lapatinib 2-hour pre-treatment): 10%
SJF-0628-dependent BRAF^WT degradation ([7]; without lapatinib pre-treatment): 48%
DC50 [8]: 72 nM
Dmax [9]: > 80%
DC50 [10]: 147 nM
Dmax ([10]; HCC364): > 90%
IC50 (BRAF V600E): 1.87 nM
Compound: CCCS(=O)(=O)Nc1ccc(F)c(C(=O)c2c[nH]c3ncc(-c4ccc(N5CCN(CC(=O)NC(C(=O)N6CC(O)CC6C(=O)NCc6ccc(-c7scnc7C)cc6)C(C)(C)C)CC5)cc4)cc23)c1F (stereo not drawn) [SJF-0628]
inhibition of p-ERK (p-ERK (CAL-12-T cells)): > 70%
inhibition of cell growth / effect on cell viability [6]: minimal inhibition of cell growth; also recorded: minimal effect on cell viability

— PMC7876048, “Mutant-selective degradation by BRAF-targeting PROTACs” (Nature Communications, 2021)
